According to patent publication US20150119601A1, “MONOFUNCTIONAL MCR + 3-HP DEHYDROGENASE” (OPX Biotechnologies, Inc., priority 2013, published 2015):
Like-named read-outs stand apart in the source and are kept apart here.

Assays:
E. coli strains = assay: Growth inhibition of E. coli strains by 3-HP; type: cell-based; settings: E. coli strains grown in the presence of 3-HP
E. coli ACCase = E. coli ACCase (Escherichia coli, UniProt P0A9Q5+P0ABD5+P0ABD8+P24182); settings: for inhibition of E. coli ACCase by the salts: FIG. 4; for decrease of ACCase enzyme activity: relative to control (FIG. 4)
E. coli ACCase, sequence (P0ABD5 whole entry): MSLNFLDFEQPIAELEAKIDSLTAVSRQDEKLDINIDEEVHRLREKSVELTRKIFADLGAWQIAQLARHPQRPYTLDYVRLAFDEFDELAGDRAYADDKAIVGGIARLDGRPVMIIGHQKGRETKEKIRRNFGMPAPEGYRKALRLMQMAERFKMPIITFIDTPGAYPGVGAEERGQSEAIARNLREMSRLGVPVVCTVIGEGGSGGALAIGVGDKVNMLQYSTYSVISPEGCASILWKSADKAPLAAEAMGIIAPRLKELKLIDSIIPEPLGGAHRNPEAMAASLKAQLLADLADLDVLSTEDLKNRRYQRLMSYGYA
E. coli ACCase, sequence (P0A9Q5 whole entry): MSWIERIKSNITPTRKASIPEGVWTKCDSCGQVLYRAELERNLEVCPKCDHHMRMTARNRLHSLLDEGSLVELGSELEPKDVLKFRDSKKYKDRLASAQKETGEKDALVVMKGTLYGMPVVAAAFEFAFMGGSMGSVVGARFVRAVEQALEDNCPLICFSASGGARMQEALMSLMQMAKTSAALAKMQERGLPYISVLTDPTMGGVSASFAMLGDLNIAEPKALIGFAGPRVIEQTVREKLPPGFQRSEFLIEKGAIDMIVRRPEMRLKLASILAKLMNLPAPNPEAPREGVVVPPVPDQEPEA
Method: Levels of greater than 0.66M (60 g/L) are expected to be present for commercially viable commercial production of 3-HP.
Each gene was amplified by PCRs with Pfu Ultra II HS using the manufacturer's instructions, and the PCR products were purified using the Zymo PCR Cleanup kit. Concentrations of products were measured using the Nanodrop spectophotometer. The Gibson Assembly kit (NEB) was used to construct plasmids expressing the ACCase subunit genes as directed by the manufacturer. The effect of NH4-3-HP and NH4Cl on H. elongata ACCase was tested and compared to the E. coli ACCase.

H. elongata ACCase = assay: Salt effect on H. elongata ACCase compared to E. coli ACCase; type: biochemical, Halomonas elongata; settings: FIG. 4
Method: Concentrations of products were measured using the Nanodrop spectophotometer.

[1] = salts of 3-HP levels near 0.66M

Row | SMILES | 3-HP level at which growth inhibition is demonstrated (E. coli strains) [g/L] | inhibition of E. coli ACCase by the salts (E. coli ACCase) | decrease of ACCase enzyme activity (E. coli ACCase; [1]) | effect of the salts on ACCase from the halophile (H. elongata ACCase) | decrease of ACCase enzyme activity (E. coli ACCase; salt levels near 0.44M)
1 | O=C(O)CCO [3-HP, 3-hydroxypropionic acid] | ≥ 20 | – | – | – | –
2 | N.O=C(O)CCO [NH4-3-HP] | – | significantly inhibited | approximately 80% | less affected | –
3 | Cl.N [NH4Cl] | – | significantly inhibited | – | less affected | approximately 80%
4 | O=C([O-])CCO.[Na+] [Na-3-HP] | – | – | approximately 80% | – | –
5 | [Cl-].[Na+] [NaCl] | – | – | – | – | approximately 80%
